According to publication PMC7872319, “Probing Biomolecular Interactions by a Pattern-Forming Peptide–Conjugate Sensor” (Bioconjugate Chemistry, 2020):
Entries after “also recorded” stand apart in the source; their conditions may differ. Like-named read-outs stand apart in the source and are kept apart here.

Assays:
[1] = target: T1, MinD ATPase (Escherichia coli, UniProt P0AEZ3); details: 1 μM MinD, controls: four technical replicates, unconjugated peptide or single unhybridized conjugate
T1 sequence (P0AEZ3 1-270): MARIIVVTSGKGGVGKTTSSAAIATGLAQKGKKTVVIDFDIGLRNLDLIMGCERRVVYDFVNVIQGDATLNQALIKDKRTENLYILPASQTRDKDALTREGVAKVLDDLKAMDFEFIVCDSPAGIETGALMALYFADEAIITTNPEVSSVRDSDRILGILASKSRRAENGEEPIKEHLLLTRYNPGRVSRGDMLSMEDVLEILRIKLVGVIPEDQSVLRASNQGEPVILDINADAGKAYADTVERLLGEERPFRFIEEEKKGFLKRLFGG

[2] = target: T1, MinD ATPase; details: read-out: IC50 of MinD ATPase activity; unconjugated ssDNA competitor added to MinD with common 10 nt + complementary 10 nt peptide conjugates; two independent assays, each three technical replicates; 95% CI (nM): 12-mer 60.3 to 81.9, 10-mer 393.6 to 772.0, 7-mer 1557.0 to 2730.0
[3] = tested on: MinD; assay: Self-organization assay: ssDNA competition with preformed dsDNA-peptide conjugate; assay type: biochemical, Escherichia coli; details: 160 nM common 10 nt and 10 nt peptide conjugates preincubated with 1 μM MinD, competitor added in increasing amounts
Protocol: Supported lipid bilayers (SLBs) were formed by fusion of SUVs in a 96-well plate with a glass bottom (Greiner Bio-One, Kremsmünster, Austria). Plates were cleaned for 30 s (30% power, 0.3 mbar) in a Zepto plasma cleaner (Diener electronic GmbH, Ebhausen, Germany) using oxygen as the process gas. Lipids were prepared as described above, except that sonication was used instead of freeze–thaw cycles to form SUVs. SUVs were added to each reaction chamber at a final concentration of 0.6 mg/mL and incubated for 2 min on a 37 °C warm heating block.
All self-organization assays were performed as previously described.[12],[30] […] For fluorescence imaging, MinD was doped with 30% ATTO655-KCK-MinD.
Imaging was performed on either a commercial Zeiss LSM800 or LSM780 confocal microscope each equipped with a Zeiss C-Apochromat 40X/1.20 water-immersion objective (Carl Zeiss AG, Oberkochen, Germany). ATTO655-KCK-MinD was excited at 640 nm and imaging was performed with a pinhole diameter of 1 Airy unit.
Image analysis was performed in Fiji with the Radial Profile plugin (https://imagej.nih.gov/ij/plugins/radial-profile.html) using custom macro scripts.[31],[32] To discriminate among different patterns and to further characterize them, two approaches were applied. In the first, autocorrelation analysis was performed for each image. A soft windowing function (raised-cosine window, 1 at the center and 0.75 at the edges) was applied to reduce edge effects. Then the autocorrelation image was computed, from which a radial amplitude profile was generated. The position of the first peak in the profile was identified as the correlation distance. Patterns were further analyzed by computing the percentage variation of the correlation intensity along the ring in the autocorrelation image, here defined as correlation dispersion. […] Once separated, the pattern types were further characterized on the basis of additional parameters. Specifically, for the quasi-stationary patterns we used the spot density, derived from the reciprocal of the squared correlation distance, or the correlation distance itself. […]

[4] = tested on: MinD; details: 1 μM MinD, 500 nM MinE(13-31)-biotin, 90 nM divalent streptavidin
[5] = target: T1, MinD ATPase; assay: MinD ATPase assay: free biotin competing with MinE(13-31)-biotin for divalent streptavidin; assay type: biochemical; design: His (N); made in house; host or cells: E. coli BL21 (DE3)

N-term-NTANIAKERLQIIVAERRRGSGK(N3)-C-term [MinE(13-31)]
MinD ATPase stimulation (in words) [1]: only able to slightly stimulate MinD’s ATPase activity
MinD ATPase stimulation (in words) ([1]; listed as unconjugated peptide): slightly elevated

10-mer: competitor ssDNA 5`-AGATGTATTT-3`, 8 overlaps (DNA, backbone not given here)
IC50 [2]: 551 nM
alteration/abolition of MinD patterns by ssDNA competitor [3]: abolition of MinD self-organization, but only at higher concentrations in comparison to the 12-mer; also recorded: altered wavelengths of the protein patterns, before eventually abolishing them completely
alteration/abolition of MinD patterns by ssDNA competitor ([3]; listed as 10mer): alteration, and ultimately abolition, of protein patterns

12-mer: competitor ssDNA 5`-CTAGATGTATAA-3`, 12 overlaps (DNA, backbone not given here)
IC50 [2]: 70.3 nM
alteration/abolition of MinD patterns by ssDNA competitor [3]: alteration, and ultimately abolition, of protein patterns; also recorded: clear transformation from propagating surface waves, through quasi-stationary patterns (reverse hexagons), to the complete abolition of protein patterns

O=C(O)CCCC[C@@H]1SC[C@@H]2NC(=O)N[C@@H]21 [free biotin, biotin]
free biotin concentration for complete abolition of patterns [4]: approximately 50 nM
IC50 [5]: 8.7 nM
